What all share (experiment): NCI tumour cell line growth inhibition, 48 h
Test [1] relates to DMS 114 small cell lung.
Test [2] has as its system LXFL 529 NSCLC.
Test [3] relates to HOP-18 NSCLC.
Test [4] has as its system DMS 273 small cell lung.
The subject of test [5] is SN12K1 renal.
In test [6] the test system is M19-MEL melanoma.
Test [7] deals with XF 498 CNS.
Test [8] deals with P388/ADR leukemia.
Test [9] concerns P388 leukemia.
The subject of test [10] is RXF-631 renal.

Experimental findings from PubChem BioAssay (NCI) are described below.

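1) Cells in 96-well plates. 2) Compound, 48 h, 5 concentrations. 3) Linear interpolation between surrounding doses. 4) Unreached endpoint = highest concentration. TGI is the concentration that stops growth completely.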

Consider `c1c(N2CCOCC2)ssc1=[N+]1CCOCC1`, for which the TGI in test [1], in test [2], in test [3] and in [4] was greater than 100 µM in each case.
For `CC(=O)OC1CC2(O)C(CCC3(C)C(c4ccc(=O)oc4)CCC32O)C2(C)C1=CC(O)C1OC12` (stereo unspecified), the TGI in [5] came to 0.139 µM; in test [6], 0.245 µM; in test [1], 0.0335 µM; in test [7], 0.201 µM; in test [8], 250 µM; in [9] it was 154 µM. In addition, the values for the TGI in test [3] and in test [4] were 0.385 µM and 0.135 µM, respectively.
With `CCCO/N=[N+](\[O-])N(CC)CC`, the TGI in [2], in [7] and in [4] was greater than 100 µM in each case.
For the molecule `COc1ccc(OC)c(NC(=O)C(=O)C(C(=O)c2ccccc2F)C2OC(=O)c3ccccc32)c1` (stereo unspecified), the TGI in [6], in test [1], in test [2], in test [7], in test [10] and in test [4] was greater than 100 µM throughout.
